Experimental data taken from article PMC6134108, “Nystatin-like Pseudonocardia polyene B1, a novel disaccharide-containing antifungal heptaene antibiotic” (Scientific Reports, 2018).
Values after ≈ are worked out from the molar mass of the structure shown. Read-outs that look alike come from different tables or passages of the source.

Experiments:
[1] = Single intravenous dose acute toxicity; format: in vivo, mice; conditions: both sexes, ICR, mouse, in vivo; mice, single intravenous administration; read-out: LD50, median lethal dose (dose causing 50% mortality)
Experimental: All in vivo mouse toxicity studies were conducted according to Testing Guidelines for Safety Evaluation of Drugs[32] and the Organisation for Economic Co-operation and Development (OECD) Guideline[33]. Male and female ICR mice were used 7 weeks old for the toxicity test. […] The single doses were 1, 2.5, and 5 mg per kg body weight.

[2] = in vivo; conditions: male, SD, rat, iv, 1 mg/kg
[3] = set-up: method as in PMID 22382166; conditions: cited from earlier work
[4] = set-up: method as in PMID 22382166; conditions: cited from earlier work; remark: listed apart in the source
[5] = Microsomal (metabolic) stability; format: in vitro ADME; conditions: human liver microsomes 1.0 mg/ml; for half-life at 1 µM / microsomal CLint at 1 µM / remaining at 80 min, 1 µM: pH 7.4; for remaining at 80 min, 1 µM: 80-min incubation
Experimental: A metabolic stability experiment was conducted to calculate the rate of disappearance of polyene macrolides following in vitro incubation with human microsomes. Working solutions of polyene macrolides were prepared from a 10 mM stock solution in dimethyl sulfoxide (DMSO) diluted to a final concentration of 1 µM in 0.1 M potassium phosphate buffer (pH 7.4). Each incubation mixture included 1 mg/mL human microsomal protein (BD Gentest^TM, Franklin Lakes, NJ, USA) and 1 mM NADPH. The reactions were terminated at 0, 15, 45, and 80 min. The reaction mixtures were vigorously vortexed and then analyzed using the API2000 LC-MS/MS) system (Applied Biosystems, USA) using an Xterra MS C18 (3.5-µm, 2.1 × 50 mm, Waters).

[6] = cited from earlier work
[7] = system: C. albicans SL28; experiment: MIC assay (CLSI M27-A3 microbroth); format: cell-based; conditions: Candida albicans
Experimental: (§1) For the minimum inhibitory concentration (MIC) assay, strains for testing were grown on YPD agar for 24 hours, and subcultured to YPD broth medium. Whole strains were incubated for 18 hours at 35 °C by shaking incubator. Grown organisms were diluted with fresh RPMI 1640 medium to appropriate concentration, 5 × 10^4 CFU/ml. Cultures were inoculated to 96-well plates containing antifungal medium. All compounds were dissolved using Dimethyl Sulfoxide (DMSO) and diluted broth media. Fungal diluted solution and antifungal medium were mixed at 1:1 ratio so total 200 ul mixed medium was made. Whole experiment plates were incubated for 24 hours at 37 °C. […] The MICs were calculated in duplicate using the Clinical and Laboratory Standards Institute M27-A3 microbroth methodology. Hemolysis experiments and the 3-(4,5-dimethylthiazol-2-yl)-5-(3-carboxymethoxyphenyl)-2-(4-sulfophenyl)-2H-tetrazolium (MTS) cell proliferation colorimetric assay were performed following known procedures[12],[27],[29].

[8] = system: Candida albicans KCTC7965; experiment: MIC assay (CLSI M27-A3 microbroth); format: cell-based
Experimental: as §1

[9] = system: C. albicans SL38; experiment: MIC assay (CLSI M27-A3 microbroth); format: cell-based; conditions: Candida albicans
Experimental: as §1

[10] = system: C. albicans SC5314; experiment: MIC assay (CLSI M27-A3 microbroth); format: cell-based; conditions: Candida albicans
Experimental: as §1

[11] = system: horse blood cells; format: cell-based
Experimental: as §1

[12] = in vivo; conditions: mouse, 1 mg/kg
Excerpt: Supplement 41598_2018_31801_MOESM1_ESM.docx, table 4: Table S4.

[13] = 7-day repeated intravenous dose toxicity; format: in vivo, mice; conditions: both sexes, ICR, mouse, in vivo; mice, 7-day repeated intravenous doses; read-out: MTD, maximal tolerated dose
Experimental: All in vivo mouse toxicity studies were conducted according to Testing Guidelines for Safety Evaluation of Drugs[32] and the Organisation for Economic Co-operation and Development (OECD) Guideline[33]. Male and female ICR mice were used 7 weeks old for the toxicity test. […]

[14] = rats, oral administration
[15] = system: C. albicans SC5314; experiment: In vivo efficacy, candidiasis-infected mouse model (survival); set-up: species or system Candida albicans; conditions: ICR mice infected with C. albicans SC5314; low dose 0.1 mg/kg
Excerpt: The systemic infection animal model was established using 4-week-old male ICR mice. Five C. albicans strains, consisting of two standard (C. albicans SC5314 and KCTC7965) and three clinical (C. albicans SL23, SL28, and SL38) strains were intravenously injected into the lateral tail vein of the various mouse groups. The mice were daily monitored for signs and mortality, and then they were euthanized. Subsequently, the target pathogenic C. albicans strain and optimal concentration for systemic infection for C. albicans were determined. A clinical isolate of C. albicans (SC5314) was grown and subcultured at 35 °C on Sabouraud dextrose agar (SDA) before infection. Candidiasis was induced by injecting 5 × 10^5 CFU/mouse via the tail vein of six 4-week-old ICR male mice. Each animal in the treatment group was administered a subcutaneous injection of reconstituted polyene macrolides 4 h after the infection. The drug efficacy was investigated by determining the survival rates of the mice.

Compound: CC(=O)NC1C(OC2C(C)OC(OC3C=CC=CC=CC=CCCC=CC=CC(C)C(O)C(C)C(C)OC(=O)CC(O)CC(O)CC(O)CCC(O)C(O)CC4(O)CC(O)C(C(=O)O)C(C3)O4)C(O)C2N)OC(CO)C(O)C1O (stereo not drawn) [NPP A1, nystatin-like Pseudonocardia polyene (NPP) A1]
- LD50 at 7 days [1]: 16.1 mg/kg
- AUC(0-inf) ([2]; plasma): 4470 ng·h/mL
- AUC(0-t) ([2]; plasma): 4390 ng·h/mL
- MRT inf ([2]; plasma): 42 min
- Vd ([2]; plasma): 0.1 L/kg
- clearance ([2]; plasma): 3.33 mL/min/kg
- half-life ([2]; plasma): 36 min
- antifungal activity, lower than nystatin A1 [3]: approximately 50%
- water-solubility, fold higher than nystatin A1 [4]: 300 fold
- Clearance class [5]: Low
- half-life at 1 µM [5]: > 80 min
- microsomal CLint at 1 µM [5]: < 8600 µL/min/mg
- remaining at 80 min, 1 µM [5]: 60.9%
- hemolytic activity, fold reduced versus nystatin A1 [6]: 10 fold
- MIC ([7]; SL28, read-out: Antifungal activity (MIC)): 16 µg/mL (≈ 14.2 µM)
- MIC ([8]; Candida albicans, KCTC7965, read-out: Antifungal activity (MIC)): 16 µg/mL (≈ 14.2 µM)
- MIC ([9]; SL38, read-out: Antifungal activity (MIC)): 16 µg/mL (≈ 14.2 µM)
- MIC ([10]; SC5314, read-out: Antifungal activity (MIC)): 16 µg/mL (≈ 14.2 µM)
- Hemolytic activity (MHC, minimum hemolytic concentration) ([11]; 90% hemolysis against horse blood cells, ± percentage standard deviation): 459.35 ± 32.5 µg/mL
- AUC(0-inf) ([12]; read-out: AUC0-inf): 12700 ng·h/mL
- AUC(0-t) ([12]; read-out: AUC0-t): 12400 ng·h/mL
- clearance ([12]; read-out: CL (converted)): 1.67 mL/min/kg
- MRT inf ([12]; read-out: MRTinf): 1.1 h
- Vd ([12]; read-out: Vss): 0.1 L/kg
- half-life ([12]; read-out: t1/2 (converted)): 60 min
- MTD at 7 days [13]: 5 to 10 mg/kg
- detection in the plasma following oral administration [14]: not detected

Compound: C[C@@H]1[C@H](O)[C@@H](C)/C=C/C=C/CC/C=C/C=C/C=C/C=C/[C@H](O[C@@H]2O[C@H](C)[C@@H](O)[C@H](N)[C@@H]2O)C[C@@H]2O[C@](O)(C[C@@H](O)[C@H](O)CC[C@@H](O)C[C@@H](O)C[C@@H](O)CC(=O)O[C@H]1C)C[C@H](O)[C@H]2C(=O)O [Nystatin A1, nystatin A1]
- LD50 at 7 days [1]: 5.37 mg/kg
- MRT inf ([2]; in vivo): 48 min
- AUC(0-inf) ([2]; plasma): 5300 ng·h/mL
- AUC(0-t) ([2]; plasma): 5120 ng·h/mL
- Vd ([2]; plasma): 0.2 L/kg
- clearance ([2]; plasma): 3.33 mL/min/kg
- half-life ([2]; plasma): 36 min
- survival rate [15]: gradually decreased
- Clearance class [5]: Low
- half-life at 1 µM [5]: > 80 min
- microsomal CLint at 1 µM [5]: < 8600 µL/min/mg
- remaining at 80 min, 1 µM [5]: 115%
- MIC ([7]; C. albicans SL28, no visible growth, read-out: Antifungal activity (MIC)): 4 µg/mL (≈ 4.32 µM)
- MIC ([8]; Candida albicans KCTC7965, no visible growth, read-out: Antifungal activity (MIC)): 4 µg/mL (≈ 4.32 µM)
- MIC ([9]; C. albicans SL38, no visible growth, read-out: Antifungal activity (MIC)): 4 µg/mL (≈ 4.32 µM)
- MIC ([10]; C. albicans SC5314, no visible growth, read-out: Antifungal activity (MIC)): 4 µg/mL (≈ 4.32 µM)
- Hemolytic activity (MHC, minimum hemolytic concentration) ([11]; horse): 66.17 ± 0.90 µg/mL
- AUC(0-inf) [12]: 7150 ng·h/mL
- AUC(0-t) [12]: 7120 ng·h/mL
- MRT inf [12]: 0.9 h
- Vd [12]: 0.1 L/kg
- clearance [12]: 1.67 mL/min/kg
- half-life [12]: 36 min
- MTD at 7 days [13]: 2 to 4 mg/kg
